The record followed here is patent publication US20210352900A1, “Method for Controlling PPO Resistant Weeds” (BASF SE, priority 2016, published 2021).

Structures are written as SMILES.

For this assay, the system named is Amaranthus tuberculatus (AMATU, tall waterhemp), PPO resistant biotype 2 containing the ΔG210 mutation (w.3). It is filed as in vivo. To be noted: azafenidin: in comparison to sensitive biotypes.

Take `C#CCOc1cc(-n2nc3n(c2=O)CCCC3)c(Cl)cc1Cl` [azafenidin, reference compound]: the “activity on / control of resistant weeds containing the ΔG210 mutation (w.3), in words” value is “much weaker control”.
On to `CCc1ccc(COc2ccc(-n3c(=O)cc(C(F)(F)F)n(C)c3=O)cc2)c(OC(C)C(=O)OC)c1` (centres unmarked) [(I).1, benzfendizone], for which the “activity on / control of resistant weeds containing the ΔG210 mutation (w.3), in words” value is given as “very good activity”.
